# Results as given in patent US8809389B2, “Substituted alkynyl phenoxy compounds as new synergists in pesticidal compositions” (Endura S.p.A., priority 2009, dated 2014).
# Where “and” joins values, the source holds several entries; their conditions need not be identical. Equal values may be shown once.
# How the values were obtained:
# [1] = biological target: T1, purified resistance-associated esterase (E4) (Myzus persicae, UniProt P35501); test: Esterase interference assay (indirect determination of esterase inhibition); assay type: biochemical; details: for Esterase protection (%) after pre-incubation with compound: no esterase = 0%, uninhibited E4 = 100%; for Reduction of esterase protection, comparison in words: E4 esterase interference assay, Examples 13 and 16
# T1 construct: 5 g of aphids (stored at −20° C.) were homogenised in 0.02 M phosphate buffer pH 7.0; from tissue; host or cells: whole Myzus persicae aphids, clone 794JZ; homogenate purified over G-25 and DEAE Sepharose Fast Flow
# T1 sequence (P35501 24-552): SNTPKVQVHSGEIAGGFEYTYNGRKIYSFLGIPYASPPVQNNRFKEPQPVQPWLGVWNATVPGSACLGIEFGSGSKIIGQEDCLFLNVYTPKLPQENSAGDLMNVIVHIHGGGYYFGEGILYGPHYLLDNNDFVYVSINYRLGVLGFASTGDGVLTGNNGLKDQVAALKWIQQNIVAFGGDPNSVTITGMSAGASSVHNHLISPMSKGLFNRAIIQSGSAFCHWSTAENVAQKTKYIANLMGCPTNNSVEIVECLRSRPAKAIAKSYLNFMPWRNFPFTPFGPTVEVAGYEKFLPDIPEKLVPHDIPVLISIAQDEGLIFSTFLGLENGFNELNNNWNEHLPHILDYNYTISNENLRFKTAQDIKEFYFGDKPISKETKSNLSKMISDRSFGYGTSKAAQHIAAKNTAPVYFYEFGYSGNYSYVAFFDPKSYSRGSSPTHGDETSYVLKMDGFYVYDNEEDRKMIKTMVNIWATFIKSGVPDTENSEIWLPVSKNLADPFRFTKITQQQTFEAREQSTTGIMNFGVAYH
# From the text: Measuring the in vitro inhibition is not straight forward, as synergists may bind to a site other than the active site.
# The esterase used was the well-characterised resistance associated esterase purified from M. persicae, E4, (aphid clone: 794JZ) as per Devonshire (1977) with some modifications(Devonshire A L, The properties of a carboxylesterase from the peach-potato aphid, Myzus persicae (Sulz.) and its role in conferring insecticide resistance. Biochem J 167: 675-683 (1977)). Briefly, 5 g of aphids (stored at −20° C.) were homogenised in 0.02 M phosphate buffer pH 7.0 and centrifuged at 20 000 g for 10 min. The supernatant was passed through a G-25 column using 0.02M Tris/HCl, pH 8.5 buffer. Unretarded fractions containing esterase activity were further chromatographed through DEAF Sepharose Fast Flow (Amersham Biosciences) and eluted with a linear 0-0.35 M NaCl gradient in 500 ml of Tris/HCl as above. Fractions containing carboxylesterase activity in the form of E4 were concentrated, desalted, and buffer exchanged to 0.02 M phosphate pH 7.0 for storage.
# Interactions of the purified resistance-associated esterase (E4) with Compound of Example 2, Compound of Example 3, Compound of Example 4, Compound of Example 9 and Compound of Example 11 were performed using the ‘esterase interference assay’, as described by Khot et al., with some modifications. Devonshire A L, The properties of a carboxylesterase from the peach-potato aphid, Myzus persicae (Sulz.) and its role in conferring insecticide resistance. Biochem J 167: 675-683 (1977)). Briefly, stock solutions of novel synergists (3 mM in acetone) were pre-incubated with pure E4, to give a final concentration of 0.03 mM, for 16 h at 4° C. Aliquots (15 μl ) of E4, E4+Compound of Example 2, E4+Compound of Example 3, E4+Compound of Example 4, E4+Compound of Example 9 and E4+Compound of Example 11 were incubated for 1 h with 60 μl of serial dilutions of azamethiphos in 0.02M phosphate buffer, pH 7, in separate wells of a NUNC microplate. Aliquots (25 p1) of house fly head homogenate (source of AChE) were added to each well and incubated for 15 minutes at room temperature. E4 in acetone and buffer only served as the positive and the negative controls respectively. AChE activity was measured at 405 nm using a Tmax kinetic microplate reader (Molecular Devices, Menlo Park, Calif.). Readings were taken automatically for 10 min at 10 s intervals. The rate (mOD min^−1) was calculated by the integrated software, Softmax Pro 4.6. All treatments were performed in triplicate.
# No added esterase is giving 0% esterase protection and uninhibited esterase (E4) is giving 100% protection.
# The materials and procedure as stated in Example 13, paragraphs 13.1, 13.1.2, 13.1.2.1 and 13.1.2.2. have been used and the following results have been obtained: […]
# Myzus persicae = test: Topical application bioassay on aphid clones: imidacloprid with or without synergist pre-treatment; details: for RF, resistance factor (LC50 resistant / LC50 susceptible population): imidacloprid; for LC50 (lethal concentration of imidacloprid to kill 50% of the population): imidacloprid alone, topical, scored 72 h
# Description: Aphid clones were reared on Chinese cabbage (Brassica rapa L. var. Pekinensis c.v Wong Bok) (Brassicaceae) leaves held in small plastic box-cages maintained at 18±2° C. with a 16:8 h light:dark photoperiod (Blackman R L, Variation in the photoperiodic response within natural populations of Myzus persicae (Sulzer). Bull Ent Res 60: 533-546 (1971)).
# Clone 4106A is a laboratory insecticide-susceptible standard2 . […] Both aphid clones have been established from single parthenogenetic M. persicae females (Foster S P, Denholm I, Thompson R, Poppy G M, Powell W, Reduced response of insecticide-resistant aphids and attraction of parasitoids to alarm pheromone; a potential fitness trade-off. Bull Ent Res 95: 37-46 (2005)).
# 12.1.2 Topical Application Bioassay with 5191A Aphid Clone Young apterae were transferred to the abaxial surface of Chinese cabbage leaf discs (10 adults per leaf disc, at least 3 replicates per concentration) held on 1% agar in plastic containers (4 cm in diameter). The upper edge of each container was coated with Fluon (Whitford Plastics, UK) to prevent subsequent aphid escape from the leaf surface. After allowing 2 h for the aphids to settle, each was dosed with 0.25 μl of either 1 g L^−1 Compound of Example 3 dissolved in acetone or acetone only. After 4 h aphids were further treated with 0.25 μl imidacloprid in acetone (96% AR) using a
# Burkard microapplicator (Burkard, Rickmansworth, UK). Controls were treated with acetone only. Treated aphids were stored at 18±2° C. and 16 h light: 8 h dark photoperiod. All bioassays were scored at the endpoint of 72 h after treatment. Adults incapable of co-ordinated movement (after gentle touching with a paint brush if necessary) were scored as dead. All bioassays were completed in triplicate.
# [2] = test system: pollen beetle, Meligethes aeneus; test: Discriminating dose bioassay: α-cypermethrin in mixture with synergist; assay type: in vivo; details: Brassicogethes aeneus; for mortality at 0.3 ppm: 0.3 ppm α-cypermethrin alone
# Description: (§1) Two pyrethroid resistant populations originating from two different areas in Poland ‘Rogalin'and lebork’ were collected in July 2008. A putative susceptible population, UK population, was also collected in July 2008 in Hertfordshire, UK. All populations were collected from oilseed rape contained adults only and were kept at room temperature before assays were performed.
# Bioassays incorporating the compounds (Compound of Example 2 and Compound of Example 3) dissolved in acetone, were carried out using a diagnostic concentration of α-cypermethrin derived from the above full dose response bioassays in a mixture of 0.01 g L^−1 of the compounds. The concentration of α-cypermethrin used for the discriminating dose bioassays was 0.3 ppm α-cypermethrin for the two polish populations, Rogalin and Lebork and 0.03 ppm α-cypermethrin for UK population. Vials treated with the compounds only, dissolved in acetone and acetone only were used as controls. Ten to 15 replicates were used for each treatment depending on insect numbers within the population. Compounds concentrations chosen conferred no mortality in preliminary bioassays.
# (§2) Treated vials including the pollen beetles were stored in constant environment facilities at 18±2° C. and 16L: 8D. All bioassays were scored at an endpoint of 24 h after exposure to the insecticide. Insects incapable of coordinated movement (after gentle touching with a pencil brush if necessary) were scored as dead.
# [3] = test system: pollen beetle, Meligethes aeneus; test: Full dose response bioassay (α-cypermethrin), coated glass vials, IRAC method no 11; assay type: in vivo; details: for LC50 (lethal concentration of α-cypermethrin to kill 50% of the population): 24 h
# Description: as §1
# To characterise the response of the 3 above pollen beetle populations against α-cypermethrin full dose response bioassays were carried out. The bioassay method used was based on the method recommended by the Insecticide Resistance Action Committee (IRAC method no 11). Briefly, glass vials (5.7 cm height and 2.3 cm diameter) were coated with 0.5 ml of a serial dilutions of insecticide, dissolved in acetone, (α-cypermethrin) and rolled upon a blood-roller (Luckham Multimix Major, Denley Instruments Ltd) at room temperature until the solutions had completely evaporated. Five to 20 non-sexed adult pollen beetles were placed into a vial for each replicate and the top loosely closed with a screw-cap. Three replicates were used at each insecticide concentration, 7 concentrations in all. Vials treated with acetone only were used as controls.
# as §2
# [4] = Table 2 (Example 13), 0.03 mM compound pre-incubated with E4 16 h at 4° C.
# [5] = second 'TABLE 3' (Example 16), procedure as Example 13
structure (smiles),measurement,setting,value
"C#CCOc1ccc2c(c1)OCO2 [Example 1, 5-(propargyloxy)-benzo[1,3]dioxole, reference compound]",Esterase protection (%) after pre-incubation with compound,[1]; [4],63.9%
same,Esterase protection (%) after pre-incubation with compound,[1]; [5],63.90%
"C#CCOc1cc2c(cc1CCC)OCO2 [Example 4, 5-(propargyloxy)-6-propyl-benzo[1.3]dioxole]","Reduction of esterase protection, comparison in words",[1],worse activity than the compound of Example 3
same,Esterase protection (%) after pre-incubation with compound,[1]; [4],2.06%
same,Esterase protection (%) after pre-incubation with compound,[1]; [5],2.06%
"C#CCOc1cc(OC)c(OC)cc1CCC [Example 7, 1-(propargyloxy)-6-propyl-3,4-dimethoxybenzene]",Esterase protection (%) after pre-incubation with compound,[1]; [5],15.17%
"CC#CCOc1cc(OC)c(OC)cc1CCC [Example 8, 1-(but-2-ynyloxy)-6-propyl-3,4-dimethoxybenzene]","Reduction of esterase protection, comparison in words",[1],"better activity than compounds 4, 7, respectively"
same,Esterase protection (%) after pre-incubation with compound,[1]; [5],5.09%
"CC#CCOc1cc2c(cc1COCCOCCOCCCC)OCO2 [Example 9, 5-[2-(2-butoxyethoxy)-ethoxy]methyl-6-(but-2-ynyloxy)-benzo[1.3]dioxole]",Esterase protection (%) after pre-incubation with compound,[1]; [4],2.96%
"CC#CCOc1cc2c(cc1CCC)CCO2 [Example 11, 6-(but-2-ynyloxy)-5-propyl-2,3-dihydrobenzofuran]",Esterase protection (%) after pre-incubation with compound,[1]; [4],−1.17%
O=[N+]([O-])NC1=NCCN1Cc1ccc(Cl)nc1 [imidacloprid],"RF, resistance factor (LC50 resistant / LC50 susceptible population)",Myzus persicae; aphid clone 4106A (susceptible reference),1
same,LC50 (lethal concentration of imidacloprid to kill 50% of the population),"Myzus persicae; aphid clone 4106A (susceptible, S)",1.6 ppm
same,"RF, resistance factor (LC50 resistant / LC50 susceptible population)",Myzus persicae; aphid clone 5191A versus 4106A,56.5
same,LC50 (lethal concentration of imidacloprid to kill 50% of the population),"Myzus persicae; aphid clone 5191A, FE4(R3) resistant",90.5 ppm
CC1(C)C(C=C(Cl)Cl)C1C(=O)OC(C#N)c1cccc(Oc2ccccc2)c1 (stereo not drawn) [α-cypermethrin],mortality at 0.3 ppm,"[2]; 24 h, Lebork",4.9%
same,mortality at 0.3 ppm,"[2]; 24 h, Rogalin",2.78%
same,mortality at 0.03 ppm,"[2]; 24 h, UK population, 0.03 ppm α-cypermethrin alone",13.6%
same,mortality at 0.3 ppm,[2]; Rogalin and Lebork,~5%
same,LC50 (lethal concentration of α-cypermethrin to kill 50% of the population),"[3]; Lebork population (pyrethroid resistant, Poland)",95.0 ηg/cm^2
same,"RF, resistance factor (LC50 resistant / LC50 susceptible population)",[3]; Lebork versus UK population,44
same,LC50 (lethal concentration of α-cypermethrin to kill 50% of the population),"[3]; Rogalin population (pyrethroid resistant, Poland)",65.0 ηg/cm^2
same,"RF, resistance factor (LC50 resistant / LC50 susceptible population)",[3]; Rogalin versus UK population,23 and 23.21
same,LC50 (lethal concentration of α-cypermethrin to kill 50% of the population),[3]; UK population (putative susceptible),2.80 ηg/cm^2
same,"RF, resistance factor (LC50 resistant / LC50 susceptible population)",[3]; UK population (reference),1
